# Data from PubChem BioAssay AID1996.
# Settings: buffer; pH 7.4; 200.0 µM
row,SMILES,solubility kinetic [µg/mL]
1,CC(C)CC(NC(N)=O)C(=O)NCCc1ccc(Cl)cc1 (configuration not stated),> 46.8
2,Cc1ccc(CCNC(=O)CSCc2ccc(F)cc2)cc1,13.5
3,Cc1c(C(=O)NC2CCCCC2C)oc2ccccc12 (configuration not stated),1.7
4,O=C(Nc1cccnc1Cl)c1cccc(F)c1,36.1
5,CCC(/C=N/NC(=O)c1ccccc1F)CC,> 35.4
6,CC(C)(C)OC(=O)CN1C(=O)NC2(CCCc3ccccc32)C1=O (configuration not stated),> 49.6
7,COC(CNC(=O)c1coc2nc3ccccc3nc12)OC,34.8
8,Cc1cccc(NC(=O)c2cc([N+](=O)[O-])ccc2N2CCCCC2)n1,0.4
9,Nc1cccc(Nc2ccccc2)c1,> 27.6
10,COc1cccc(CSc2nc3ccncc3[nH]2)c1,> 40.7
11,Cc1cccc(NC(=O)N2C[C@H]3C[C@@H](C2)c2cccc(=O)n2C3)c1,> 48.5
12,Cc1nc2ccccc2c2c1C(=O)NC2=O,> 31.8
13,NC(=Nc1ccccc1)c1ccccc1,> 29.4
14,O=C(c1ccncc1)N1CCc2ccccc2C1,> 35.7
15,N#CCCN(Cc1cccs1)C(=O)c1ccc(Cl)cc1,> 45.7
16,COc1ccc(N2CCN(Cc3nc4ccccc4[nH]3)CC2)cc1,> 48.4
17,CCC1CCCCN1C(=O)CCS(=O)(=O)c1ccccc1 (configuration not stated),> 46.4
18,Cn1c(=O)c([N+](=O)[O-])c(-n2ccnc2)c2ccccc21,37.4
19,CCCCc1c(C)nc2ccccc2c1SCCC(=O)O,> 45.5
20,NC(=O)C12CCCC(Br)(CCC1)C2,36.2
21,CCOc1ccc(-n2ccc(=O)c(C(=O)O)n2)cc1,> 39
22,O=C(CCc1nc(-c2ccccc2Cl)no1)NCC1CCCO1 (configuration not stated),47.7
23,c1ccc2nc3c(nc2c1)OCC1CCCCN31 (configuration not stated),23.5
24,COC(=O)c1ccc(COC(=O)c2cccnc2Cl)cc1,37.8
25,CC(NC(=O)COc1ccccc1)C(=O)NCc1ccccc1Cl (configuration not stated),> 52

row,SMILES,solubility kinetic [µg/mL]
1,COc1ccc(NC(=O)CSCCc2ccccn2)cc1OC,48.7
2,Cc1cc(-c2onc3ccc(Cl)cc23)ccc1O,16.3
3,Nc1c(C(=O)N2CCOCC2)sc2nc3c(cc12)CCC3,> 45.5
4,N#Cc1nc(-c2ccc(F)cc2)oc1NCCCn1ccnc1,2.5
5,O=C(CCC1CCN(Cc2ccccc2Cl)CC1)NC1CC1,> 48.1
6,Brc1ccc(CNc2ccc3ncccc3c2)cc1,< 0.3
7,O=C(CN1C(=O)NC2(CCCC2)C1=O)OCCOc1ccccc1,> 49.9
8,CN(C)C(=O)COc1ncnc2sc(-c3ccccc3)cc12,13.9
9,Fc1ccc(N2CN(Cc3cccnc3)CNC2=S)cc1,> 45.4
10,CC[C@@H](Nc1ncnc2c1oc1ccccc12)C(=O)O,29.9
11,O=C(NCC1CCCO1)c1cc2cc(F)ccc2[nH]1 (configuration not stated),36.8
12,CCC1=NC(c2ccc(Br)cc2)N(O)C1(C)C (configuration not stated),41
13,CC1CC(C)CN(C(=O)COC(=O)c2ccc3c(c2)OCCO3)C1 (configuration not stated),49.5
14,CN1CCN(S(=O)(=O)c2ccccc2)CC1,34.6
15,COc1ccc(NC(=O)c2cc(-c3ccco3)on2)cc1OC,1.6
16,Cc1cc(C)c(S(=O)(=O)NC2CC(C)(C)NC(C)(C)C2)cc1C,33.5
17,O=c1[nH]cnc(O)c1C(c1ccc(F)cc1)c1c(O)nc[nH]c1=O,> 49.5
18,C=CCn1c(-c2ccc(Cl)cc2)cnc1SC(C)C(=O)NC(N)=O (configuration not stated),14.2
19,Cc1ccc(C)c(OCCCN2CCc3ccccc3C2)c1.Cl,14
20,CC(NC(=O)CN1CCN(Cc2cccc(F)c2)CC1)c1ccccc1 (configuration not stated),> 53.3
21,O=C(Nc1ccc(NC(=O)c2ccccc2O)cc1)Nc1ccc(F)cc1F,1.1
22,C=CCC1(Cl)C(=O)C(Cl)=C(N2CCN(C)CC2)C1(OC)OC (configuration not stated),> 52.4
23,CC(NC(=O)COC(=O)C1CC1C)c1ccccc1 (configuration not stated),> 39.2
24,Cc1ccc(CNC(=O)C(c2ccccc2)c2ccccc2)cc1,< 0.7
25,Cc1ccc([N+](=O)[O-])cc1NC(=O)c1cccnc1,> 38.6

row,SMILES,solubility kinetic [µg/mL]
1,COc1ccccc1-c1c(NC(=O)C(C)C)n(C)c2ccccc2c1=O,> 52.6
2,CN1CCN(c2nc3ccccc3nc2C(C#N)S(=O)(=O)c2ccccc2)CC1 (configuration not stated),> 61.1
3,O=S(=O)(c1ccc2ccccc2c1)N1CCNCC1,32.7
4,CCN(CC)C(=O)N1CCN(S(=O)(=O)c2ccccc2)CC1,> 48.8
5,COc1ccc(CCCC(=O)NCCc2ccccc2)cc1,35.2
6,CCN(CC)C(=O)CSc1nc(-c2ccccc2)ccc1C#N,0.6
7,COC(=O)c1sccc1NC(=O)c1ccc(C)cc1,< 0.6
8,O=[N+]([O-])c1ccc(OCC2CC(c3ccccc3)=NO2)cc1 (configuration not stated),< 0.3
9,O=C1c2ccccc2C(=O)c2[nH]c(=O)[nH]c21,> 32.1
10,Cc1ccc(CNC(=O)c2ccc(S(=O)(=O)N(C)C)cc2)n1C,48.6
11,O=c1oc2ccccc2n1Cc1cccc(F)c1,8.3
12,CC1(C(=O)OCC(=O)Nc2ccc(Cl)cn2)CC1(Cl)Cl (configuration not stated),> 50.6
13,Cc1cc(C)c2nc(N(CCN(C)C)C(=O)c3ccc4ccccc4c3)sc2c1.Cl,2.3
14,O=C(CN1CCN(c2ccc(F)cc2)CC1)NCc1ccc(Cl)cc1,51.2
15,N#C/C(=C(/O)c1cccs1)c1nc2ccccc2[nH]1,1.2
16,Cc1ccc(-c2c[n+]3c(n2-c2ccccc2)CCC3)cc1.[Br-],> 53.3
17,CCCCS(=O)(=O)N1CCCC(C(=O)NCC2CCCO2)C1 (configuration not stated),41.1
18,CCCCn1c(N)c(N(CC)C(=O)c2ccccc2C)c(=O)[nH]c1=O,49.5
19,CCN(CC)c1nc2ccccc2[nH]c1=O,10.7
20,Cc1ccccc1C(=O)c1c[nH]c(C(=O)NCCc2ccccn2)c1,> 50
21,Cn1c(Nc2ccccc2)nc2ccccc21,25.9
22,COc1ccc(/C=N/NC(=O)c2ccc3nc[nH]c3c2)cc1,> 44.1
23,CC(C)(C)NC(=O)C(OC(=O)c1cccs1)c1ccccc1 (configuration not stated),3.3
24,CN(C)/C=C/C(=O)c1ccc(-n2cccc2)cc1,> 36
25,COc1ccc(C(CNS(=O)(=O)c2ccc(NC(C)=O)c(OC)c2)N2CCCC2)cc1.Cl (configuration not stated),> 72.6

row,SMILES,solubility kinetic [µg/mL]
1,COC(=O)C1Cc2ccccc2CN1S(=O)(=O)c1ccc(F)cc1 (configuration not stated),35.4
2,O=[N+]([O-])c1c(Nc2ccc(Br)cc2)ccc2nonc12,< 0.2
3,CN1C(C(=O)Nc2ccccn2)=C(O)c2ccccc2S1(=O)=O,> 49.7
4,CCc1ccc(C(=O)Nc2ccc3nc(C)ccc3c2)cc1,< 0.3
5,CC(C)c1ccc(Nc2ccc(C(=O)O)cc2[N+](=O)[O-])cc1,> 45
6,O/N=C/c1ccc2cccc(O)c2n1,26.3
7,CCCC(=O)OCC[N+](C)(C)C.[Cl-],> 31.5
8,Cn1c(=O)c2sccc2n(Cc2ccccc2)c1=O,> 40.8
9,S=C(Nc1ccccc1Oc1ccccc1)NC1CCCC1,5
10,COC(=O)c1sccc1NC(=O)C1CC1,21.8
11,N#CCCOC1(C#CCN2CCCC2)CCCCC1,32.2
12,CCOc1cc(N2CCOCC2)c(OCC)cc1NC(=O)CSc1nnc(N)s1,> 65.9
13,C=CCN1CN(CCc2ccccc2)CNC1=S,> 39.2
14,O=C1OC(c2ccc3c(c2)OCO3)=N/C1=C\c1ccc(C(=O)O)cc1,> 50.6
15,Cc1nc(N)nc(COc2ccccc2)n1,> 32.4
16,O=C(C1CCCO1)N1CCN(C(=S)NC2CC2)CC1 (configuration not stated),> 42.5
17,O=c1[nH]cnc2cc(-c3ccc(Br)cc3)sc12,0.6
18,O=S(=O)(c1ccc(S(=O)(=O)N2CCCC2)cc1)N1CCCCC1,< 0.4
19,CC(=O)N(c1cccc(Br)c1)c1nc(C)cc(C)c1C#N,> 51.6
20,CCCCCCn1c(N2CCCC2)nc2c1c(=O)[nH]c(=O)n2C,> 47.9
21,CC1CCCC(NC(=O)COC(=O)c2cccs2)C1C (configuration not stated),43.1
22,CCOc1ccc(N2CC(C(=O)Nc3ccc4c(c3)OCCO4)CC2=O)cc1 (configuration not stated),> 57.4
23,CC(C)c1ccc(S(=O)(=O)NC2CCCC2)cc1,> 40.1
24,Nc1cc(Cl)ccc1C(=O)OCC(=O)NCC1CCCO1 (configuration not stated),> 46.9
25,CN1C(=O)N(C)C(=O)C2(Cc3cc([N+](=O)[O-])ccc3N(C)C2)C1=O,5.3

row,SMILES,solubility kinetic [µg/mL]
1,NS(=O)(=O)c1ccc(NC(=O)Nc2cccc3ccccc23)cc1,2.1
2,C=CCSc1nc2c(c(=O)[nH]c(=O)n2C)n1Cc1ccccc1,3.9
3,CCOC(=O)Cc1csc(NC(=O)CN2CCCCC2)n1,41.6
4,O=C(c1ccc2c(c1)OCO2)C1CCCN(C(=O)C2CCOCC2)C1 (configuration not stated),> 51.8
5,CN1CC2([N+](=O)[O-])CC=C(Cl)C([N+](=O)[O-])(C1)C2 (configuration not stated),> 39.3
6,Cc1cc(OCCN2CCOCC2)ccc1Cl,25.9
7,Fc1cccc(NCCc2c[nH]c3ccccc23)n1,35.6
8,N#Cc1cnc(NOCc2ccc(Cl)cc2)nc1,7.4
9,O=C(NCCNC1CCC(c2ccccc2)CC1)c1ccc(F)cc1 (configuration not stated),35.4
10,O=C(Nc1cccc(C(=O)O)c1)Nc1cccc2ccccc12,> 45.9
11,CCOc1ccccc1NC(=O)c1ccc2[nH]c(C)c(C)c2c1,2.8
12,C=CCn1cnc2scc(-c3ccc(OC)cc3)c2c1=O,39
13,C=CCNc1nc(N)c([N+](=O)[O-])c(Nc2ccccc2OC)n1,0.4
14,Cn1c(CC(=O)Nc2ccccc2)cc2ccccc21,1.7
15,COc1ccc(CCNC(=O)COC(=O)Cc2ccccc2F)cc1,> 51.8
16,O=C(Cc1ccccc1)OCC(=O)c1cccc([N+](=O)[O-])c1,> 44.9
17,O=c1c2ccccc2nc(/C=C/c2ccc(F)cc2)n1-c1ccccc1O,5.2
18,CC(C)(C)NS(=O)(=O)c1ccc(NC(=O)CS(=O)(=O)Cc2ccccc2)cc1,> 63.7
19,Cc1ccc(OCc2csc(N)n2)cc1,> 33
20,O=[N+]([O-])c1cccc(CN2CC=C(c3ccc(F)cc3)CC2)c1,3.3
21,O=C(NCCc1ccc(F)cc1)Nc1ccccc1,6.1
22,O=C(Cc1cccc2ccccc12)Nc1ccccc1Br,< 0.7
